Measured values from ChEMBL document CHEMBL1138198, “Carbonic anhydrase inhibitors: DNA cloning and inhibition studies of the alpha-carbonic anhydrase from Helicobacter pylori, a new target for developing sulfonamide and sulfamate gastric drugs” (J Med Chem, 2006).

Tests used:
[1] = molecular target: T1, Carbonic anhydrase (Helicobacter pylori (strain ATCC 700392 / 26695) (Campylobacterpylori), UniProt O24855)
T1 sequence (O24855 whole entry): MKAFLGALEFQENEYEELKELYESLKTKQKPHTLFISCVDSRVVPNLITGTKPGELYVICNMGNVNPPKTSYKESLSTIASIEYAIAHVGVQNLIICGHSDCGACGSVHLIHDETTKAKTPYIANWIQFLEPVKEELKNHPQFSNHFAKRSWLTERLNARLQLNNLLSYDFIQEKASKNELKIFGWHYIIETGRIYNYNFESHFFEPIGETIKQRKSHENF
Description: Inhibition of Helicobacter pylori recombinant carbonic anhydrase by stopped-flow CO2 hydrase assay

[2] = molecular target: Carbonic anhydrase 1 (Homo sapiens, UniProt P00915)
Sequence of Carbonic anhydrase 1 (P00915 whole entry): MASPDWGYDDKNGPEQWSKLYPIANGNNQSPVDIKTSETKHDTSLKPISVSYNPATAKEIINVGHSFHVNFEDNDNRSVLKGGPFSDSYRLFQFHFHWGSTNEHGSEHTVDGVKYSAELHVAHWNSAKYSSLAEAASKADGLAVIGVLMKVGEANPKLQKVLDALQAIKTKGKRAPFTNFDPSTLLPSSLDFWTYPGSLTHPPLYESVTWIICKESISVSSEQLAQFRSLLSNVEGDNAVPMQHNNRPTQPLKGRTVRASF
Description: Inhibition of human recombinant carbonic anhydrase 1 by stopped-flow CO2 hydrase assay

Row | SMILES | Ki [1] | Ki [2]
1 | CC(C)(C)c1ccc(C(=O)Nc2cccc(S(N)(=O)=O)c2)cc1 | 316 nM | 10800 nM
2 | CC(C)(C)c1ccc(S(=O)(=O)Nc2ccc(S(N)(=O)=O)cc2)cc1 | 60 nM | 13000 nM
3 | CC(C)(C)c1ccc(S(=O)(=O)Nc2ccccc2S(N)(=O)=O)cc1 | 640 nM | 14700 nM
4 | CC(C)(C)c1ccc(S(=O)(=O)CCNc2ccc(S(N)(=O)=O)cc2)cc1 | 27 nM | 12000 nM
5 | CC(C)(C)c1ccc(C(=O)NCCc2ccc(S(N)(=O)=O)cc2)cc1 | 51 nM | 12400 nM
6 | CC(C)(C)c1ccc(C(=O)Nc2ccccc2S(N)(=O)=O)cc1 | 539 nM | 12300 nM
7 | CC(C)(C)c1ccc(S(=O)(=O)CNc2ccc(S(N)(=O)=O)cc2)cc1 | 31 nM | 12100 nM
8 | CC(C)(C)c1ccc(S(=O)(=O)Nc2cccc(S(N)(=O)=O)c2)cc1 | 318 nM | 9620 nM
9 | CC(C)(C)c1ccc(S(=O)(=O)Nc2nnc(S(N)(=O)=O)s2)cc1 | 12 nM | 338 nM
10 | CC(C)(C)c1ccc(C(=O)Nc2nnc(S(N)(=O)=O)s2)cc1 | 13 nM | 541 nM
11 | Nc1ccc(S(=O)(=O)NCc2ccc(S(N)(=O)=O)cc2)cc1 | 131 nM | 
12 | Nc1ccc(S(N)(=O)=O)cc1I | 510 nM | 
13 | Nc1ccc(S(=O)(=O)Nc2nnc(S(N)(=O)=O)s2)cc1 | 268 nM | 
14 | CC(C)(C)c1ccc(C(=O)NCc2ccc(S(N)(=O)=O)cc2)cc1 | 62 nM | 13300 nM
15 | CC(C)(C)c1ccc(C(=O)Nc2ccc(S(N)(=O)=O)cc2)cc1 | 79 nM | 14200 nM
16 | Nc1nccc(Nc2ccc(S(N)(=O)=O)cc2)n1 | 84 nM | 
17 | Nc1ccc(S(N)(=O)=O)cc1Br | 452 nM | 
18 | Cn1nc(S(N)(=O)=O)sc1=N | 549 nM | 
19 | Nc1ccc(S(N)(=O)=O)cc1F | 1230 nM | 
20 | Nc1ccc(S(N)(=O)=O)cc1Cl | 378 nM | 
21 | Nc1ccc(S(=O)(=O)NCCc2ccc(S(N)(=O)=O)cc2)cc1 | 114 nM | 
22 | NS(=O)(=O)c1ccc(S(=O)(=O)Nc2cccc3c(Cl)c[nH]c23)cc1 | 413 nM | 
23 | CCN[C@H]1CN(CCCOC)S(=O)(=O)c2sc(S(N)(=O)=O)cc21 [BRINZOLAMIDE] | 210 nM | 
24 | NS(=O)(=O)c1ccc(C(=O)O)cc1 [CARZENIDE] | 1050 nM | 
25 | NCc1ccc(S(N)(=O)=O)cc1 [MAFENIDE] | 873 nM | 
26 | Cc1ccc(S(N)(=O)=O)cc1 [P-TOLUENESULFONAMIDE] | 450 nM | 
